The source of these data is patent US4066635A, “L-Pyroglutamyl-L-histidyl-L-prolyl-beta-alaninamide and salts” (Hoffmann-La Roche Inc., priority 1976, dated 1978).

Non-standard residues stand in square brackets, D forms with d. Residues, ends and D or L forms follow the SMILES beside them. pGlu = O=C1CC[C@@H](C(=O)O)N1; βAla = NCCC(=O)O Bounds are passed on as bounds.

Series [1] deals with noradrenalin (NA) in the entire brain of male mice. Description: Lowering of noradrenalin (NA) in entire brain of mice after FLA 63 (FLA 63-induced NA-lowering). It counts as in vivo, mouse. As for the experimental part:
The action of antidepressants can be explained by the fact that such substances normalise the activity of noradrenergic neurones in the brain, this activity being altered in the case of depressive illness. […] If a test substance has NA-liberating action, then this manifests itself in an intensification of the FLA63-induced NA-lowering.
In order to determine the antidepressant action of the compound of formula I hereinbefore, the lowering of NA in the entire brain of male mice was determined 90 minutes after the i.p. injection of FLA 63 (5 mg/kg).

The test system of the next series is mice. Description: Locomotor activity in mice. The class given is in vivo, mouse.
A short description of series [2]: Toxicity (LD 10, LD 50) in the mouse. It counts as in vivo. To be noted: in vivo, iv.
The next series deals with mouse. The experiment in a line: Toxicity (LD 10, LD 50) in the mouse. The class given is in vivo. To be noted: p.o.

As to `NC(=O)CCNC(=O)[C@@H]1CCCN1C(=O)[C@H](Cc1c[nH]cn1)NC(=O)[C@@H]1CCC(=O)N1` [compound of formula I, L-pyroglutamyl-L-histidyl-L-prolyl-β-alaninamide] ([pGlu]HP[βAla]-NH2), the “Noradrenalin (%)” value in series [1] (FLA 63 5 mg/kg i.p. plus test substance injected simultaneously, 90 minutes, entire brain, male mice, FLA 63 alone = 100%) came to 82.2 ± 2.6%. Moreover, the “liberation of NA in the brain of mice (in words)” value in series [1] (mice) was “increases the liberation of NA”. Further, the “FLA 63-induced NA-lowering (in words)” value in series [1] (simultaneous injection with FLA 63 (5 mg/kg i.p.), 90 minutes, male mice) is on record as “significant acceleration of the FLA 63-induced NA-lowering”. Also, in the series with mice, the “locomotor activity in mice (in words)” value is recorded as “increase in the locomotor activity”. In addition, the LD50 in series [2] was over 4000 mg/kg. Moreover, the “LD 10” value with mouse is given as “above 8 g/kg”.
